Test [1] is described as follows: The ability of compound to inhibit [35S][…] binding in guinea pig caudate stimulated by SNC80 (Opioid receptor delta 1) antagonist.
Test [2] in a line: The ability of compound to inhibit [35S][…] binding in guinea pig caudate stimulated by SNC80.

The structures appear in SMILES notation.

Broadly, the Ki is a dissociation constant, usually derived from enzyme kinetics or from competition with a known ligand. Lower therefore signals higher affinity.

As to `CCO[C@@]12Cc3c([nH]c4ccccc34)[C@]3(C)Oc4c(O)ccc5c4C31CCN(CC1CC1)C2C5` (stereo partly drawn) [22-cyclopropylmethyl-2-ethoxy-13-methyl-(2S,13R)-14-oxa-11,22-diazaheptacyclo[13.9.1.01,13.02,21.04,12.05,10.019,25]pentacosa-4(12),5(10),6,8,15,17,19(25)-heptaen-16-ol], in test [1], the Ki is 0.96 nM.

On to `CCO[C@@]12Cc3c(oc4ccccc34)[C@@H]3Oc4c(O)ccc5c4[C@@]31CCN(CC1CC1)[C@@H]2C5`, for which the affinity in test [1], expressed as Ki, was 0.88 nM.

In test [2], `C=CCN1CC[C@]23c4c5ccc(O)c4O[C@H]2c2[nH]c4ccccc4c2C[C@@]3(OCC)[C@H]1C5` gave a Ki of 1 nM.

Source of the values: BindingDB's records for doi:10.1021/jm020940p (University of Innsbruck, 2002).
